Values of other authors as cited in publication PMC6337650 (Molecules, 2018).

System: AGS cells
Conditions: read-out: IC50 against AGS cells; cited from earlier work

COC(=O)C(Cc1c[nH]c2ccccc12)NC(=O)[C@]1(C)CC[C@]2(C)CC[C@]3(C)C4=CC=C5C(=CC(=O)C(O)=C5C)[C@]4(C)CC[C@@]3(C)C2C1 (stereo partly shown) [Compound C]
IC50: 440 nM
